One may read the IC50 as the midpoint of a concentration-inhibition curve. A high value points to lower potency.

One experiment concerns Aβ42. Description: Aβ42 cellular assay: inhibition of Aβ42 production in H4 neuroglioma cells stably expressing human APP695, electrochemiluminescence (Meso Scale Discovery) on supernatant. Format: cell-based. To be noted: 22 hours incubation, tested range 30 µM to 0.1 nM. How it is done: (§1) Cells were plated out to near confluency. The compounds to be tested were received as 10 mM stocks in 100% DMSO. A dilution series was initially generated in 100% DMSO and then diluted 200-fold in cell culture media such that the tested concentration range was 30 µM to 0.1 nM and the final DMSO concentration was 0.5%. The diluted compounds were incubated with the cells for 22 hours in an incubator at 37°C and 5% CO2. Aβ42 as well as Aβ total levels were then measured post-incubation from the supernatant of the cells. Aβ42 levels were determined using a specific electrochemiluminescence assay provided by Meso Scale Discovery (Catalog # L21CA-1) according to the manufacturer's protocol. Aβ total levels were likewise determined using a specific electrochemiluminescence assay provided by Meso Scale Discovery (Catalog # L21ZA-1) according to the manufacturer's protocol.
(§2) In order to absolutely define the described compounds as modulators of y-Secretase as opposed to simply inhibitors of γ-Secretase, measurements of not only Aβ42 but also Aβ total are performed.

The next experiment relates to Aβ total. The experiment can be described thus: Aβ total cellular assay: inhibition of Aβ total production in H4 neuroglioma cells stably expressing human APP695, electrochemiluminescence (Meso Scale Discovery) on supernatant; used for the ratio Aβ total IC50 / Aβ42 IC50. Format: cell-based. As to conditions: higher ratio = more specific inhibition of Aβ42. How it is done:
as §1, §2

Turning to `COCCN1c2nc(Nc3ccc(-c4cnc(C)o4)c(OC)c3)nc(CC(C)C)c2N(C)C(=O)C12CCOC2` (centres unmarked) [Example 31], the IC50 with Aβ42 is 180 nM. For the same compound, the “Ratio Aß(total)/Aß42” value in the experiment on Aβ total was determined as 47.
On the same counts, the results for `COc1cc(Nc2ncc3c(n2)N(C)C2(CCOCC2)C(=O)N3C)ccc1-n1cnc(C)c1` [Example 2] are 190 nM and 89.
Compound `COc1cc(Nc2ncc3c(n2)N(CC2CCOCC2)C2(CCOC2)C(=O)N3CC2CCOCC2)ccc1-n1cnc(C)c1` (centres unmarked) [Example 24] displayed an IC50 in the experiment with Aβ42 of 3000 nM. Further, in the experiment on Aβ total, the “Ratio Aß(total)/Aß42” value is recorded as more than 10.
`COc1cc(Nc2ncc3c(n2)N(C)C2(CCC2)C(=O)N3C)ccc1-n1cnc(C)c1` [Example 43] displayed an IC50 with Aβ42 of 123 nM. Moreover, in the experiment with Aβ total, the “Ratio Aß(total)/Aß42” value was determined as 237.
`COc1cc(Nc2ncc3c(n2)N(C)C2(CCOCC2)C(=O)N3c2ccc(F)cc2)ccc1-n1cnc(C)c1` [Example 37f]: in the experiment with Aβ42, the IC50 stood at 145 nM. The “Ratio Aß(total)/Aß42” value in the experiment on Aβ total stood at 55.
For `COCCN1C(=O)C2(CCOC2)N(C)c2nc(Nc3ccc(-c4ccnc(C)c4)cc3)ncc21` (centres unmarked) [Example 14], in that order: 1400 nM and more than 27.
On the same counts, the results for `COc1cc(Nc2ncc3c(n2)N(C)C2(COC2)C(=O)N3C)ccc1-n1cnc(C)c1` [Example 41] are 1220 nM and more than 25.
In the experiment with Aβ42, `COCCN1C(=O)C2(CCOCC2)N(C)c2nc(Nc3ccc(-n4cnc(C)c4)c(OC)c3)ncc21` [Example 11] had an IC50 of 310 nM. Moreover, in the experiment with Aβ total, the “Ratio Aß(total)/Aß42” value was 26.
For the compound `COc1cc(Nc2ncc3c(n2)N(C)C2(CCc4ccccc4C2)C(=O)N3C)ccc1-n1cnc(C)c1` (centres unmarked) [Example 36], half-maximal inhibition in the experiment on Aβ42 (IC50) was put at 69 nM. The “Ratio Aß(total)/Aß42” value in the experiment with Aβ total turned out to be 179.
As for `COc1cc(Nc2ncc3c(n2)N(C)C2(CCOC2)C(=O)N3C2CC2)ccc1-n1cnc(C)c1` (centres unmarked) [Example 37g], in the experiment on Aβ42, the concentration for half-maximal inhibition (IC50) came out at 196 nM. In addition, the “Ratio Aß(total)/Aß42” value with Aβ total was 58.
On the same counts, the results for `COc1cc(Nc2nc(C)c3c(n2)N(C)C2(CCOCC2)C(=O)N3C)ccc1-n1cnc(C)c1` [Example 4] are 290 nM and 101.
As to `COc1cc(Nc2ncc3c(n2)N(C)C2(CCOC2)C(=O)N3)ccc1-n1cnc(C)c1` (centres unmarked) [Example 10], in the experiment with Aβ42, the IC50 was 620 nM. Also, in the experiment with Aβ total, the “Ratio Aß(total)/Aß42” value is given as 46.
On the same counts, the results for `COc1cc(Nc2ncc3c(n2)N(C)C2(CCCCOC2)C(=O)N3C)ccc1-n1cnc(C)c1` (centres unmarked) [Example 39] are 78 nM and 91.
On the same counts, the results for `COc1cc(Nc2ncc3c(n2)N(C)C2(CCCOCC2)C(=O)N3C)ccc1-n1cnc(C)c1` (centres unmarked) [Example 42] are 206 nM and 51.
For `CCc1nc(Nc2ccc(-n3cnc(C)c3)c(C#N)c2)nc2c1N(C)C(=O)C1(CCOC1)N2C` (centres unmarked) [Example 35], in that order: 76 nM and 180.
Consider `COc1cc(Nc2ncc3c(n2)N(C)C2(CC2)C(=O)N3CC(F)F)ccc1-n1cnc(C)c1` [Example 52], for which half-maximal inhibition in the experiment on Aβ42 (IC50) was put at 110 nM. Besides, the “Ratio Aß(total)/Aß42” value in the experiment with Aβ total is listed as 61.
Compound `COCCN1C(=O)C2(CCOCC2)N(C)c2nc(Nc3ccc(-n4cnc(C)n4)c(OC)c3)ncc21` [Example 13] displayed a half-maximal inhibitory concentration (IC50) in the experiment on Aβ42 of 2200 nM. Moreover, the “Ratio Aß(total)/Aß42” value in the experiment with Aβ total is given as more than 13.
On the same counts, the results for `COc1cc(Nc2ncc3c(n2)NC2(CCOC2)C(=O)N3C)ccc1-n1cnc(C)c1` (centres unmarked) [Example 20] are 790 nM and more than 90.
In the case of `COCCN1c2nc(Nc3ccc(-n4cnc(C)c4)c(OC)c3)nc(CC(C)C)c2N(C)C(=O)C12CCOC2` (centres unmarked) [Example 30], in the experiment on Aβ42, inhibition was half-maximal at 100 nM (IC50). In addition, in the experiment on Aβ total, the “Ratio Aß(total)/Aß42” value is 96.
On the same counts, the results for `Cc1cn(-c2ccc(Nc3ncc4c(n3)NC3(CCOC3)C(=O)N4C)cc2C#N)cn1` (centres unmarked) [Example 19] are 280 nM and more than 257.
For `COc1cc(Nc2ncc3c(n2)N(C)C2(CCCC2)C(=O)N3CC(F)(F)F)ccc1-n1cnc(C)c1` [Example 54], in that order: 22 nM and 116.
On the same counts, the results for `Cc1cn(-c2ccc(Nc3ncc4c(n3)N(C)C3(CCOC3)C(=O)N4C)cc2C#N)cn1` (centres unmarked) [Example 18] are 300 nM and 145.
Turning to `Cc1ncc(-c2ccc(Nc3ncc4c(n3)N(C)C3(CCOCC3)C(=O)N4C)cn2)o1` [Example 3], half-maximal inhibition in the experiment with Aβ42 (IC50) was put at 5400 nM. In addition, in the experiment with Aβ total, the “Ratio Aß(total)/Aß42” value is more than 6.
On the same counts, the results for `COc1cc(Nc2nc(CC(F)(F)F)c3c(n2)N(C)C2(CC2)C(=O)N3C)ccc1-n1cnc(C)c1` [Example 55] are 76 nM and 103.
As for `COc1cc(Nc2ncc3c(n2)NC2(CCOC2)C(=O)N3CCC(C)C)ccc1-n1cnc(C)c1` (centres unmarked) [Example 29], in the experiment with Aβ42, the midpoint of inhibition, the IC50, lay at 270 nM. In the experiment on Aβ total, the “Ratio Aß(total)/Aß42” value is given as 39.
For the compound `COc1cc(Nc2ncc3c(n2)N(C)C2(CC4CCC2C4)C(=O)N3C)cnc1-n1cnc(C)c1` (centres unmarked) [Example 49], the IC50 in the experiment with Aβ42 was 95 nM. In addition, the “Ratio Aß(total)/Aß42” value in the experiment on Aβ total is given as 69.
As for `CCCN1C(=O)C2(CCOCC2)N(C)c2nc(Nc3ccc(-n4cnc(C)c4)c(OC)c3)ncc21` [Example 17], the IC50 with Aβ42 came to 94 nM. Also, the “Ratio Aß(total)/Aß42” value with Aβ total turned out to be 65.
For `COc1cc(Nc2ncc3c(n2)N(C2CCCC2)C2(CC2)C(=O)N3C)ccc1-n1cnc(C)c1` [Example 38], in that order: 410 nM and more than 15.
In the experiment with Aβ42, `Cc1ncc(-c2ccc(Nc3nc(C)c4c(n3)N(C)C3(CCOCC3)C(=O)N4C)cn2)o1` [Example 5] had an IC50 of 3200 nM. The “Ratio Aß(total)/Aß42” value with Aβ total is listed as more than 9.
For `COc1cc(Nc2nc3c(c(C(C)(C)O)n2)N(C)C(=O)C2(CCOC2)N3C)ccc1-c1cnc(C)o1` (centres unmarked) [Example 40], in that order: 485 nM and more than 62.
For `COc1cc(Nc2ncc3c(n2)N(C)C2(CCOC2)C(=O)N3C(C)C)ccc1-n1cnc(C)c1` (centres unmarked) [Example 23], in that order: 39 nM and 599.
`COc1cc(Nc2ncc3c(n2)N(C)C2(CCOC2)C(=O)N3C)ccc1-c1cnc(C)o1` (centres unmarked) [Example 7] registered an IC50 in the experiment with Aβ42 of 95 nM. Also, the “Ratio Aß(total)/Aß42” value in the experiment with Aβ total is more than 315.
For `COc1cc(Nc2ncc3c(n2)N(C)C2(COCCOC2)C(=O)N3)ccc1-n1cnc(C)c1` [Example 25], in that order: 290 nM and 91.
The compound `COc1cc(Nc2ncc3c(n2)N(C)C2(CCOCC2)C(=O)N3)ccc1-n1cnc(C)c1` [Example 9] showed an IC50 in the experiment on Aβ42 of 300 nM. Besides, the “Ratio Aß(total)/Aß42” value in the experiment on Aβ total is recorded as more than 101.
On the same counts, the results for `COc1cc(Nc2ncc3c(n2)N(C)C2(CC2)C(=O)N3CC(F)(F)F)ccc1-n1ccnc1C` [Example 51] are 59 nM and 126.
For `COc1cc(Nc2ncc3c(n2)N(C)C2(CCOC2)C(=O)N3C2COC2)ccc1-n1cnc(C)c1` (centres unmarked) [Example 21], in that order: 220 nM and 114.
Consider `COc1cc(Nc2ncc3c(n2)N(C)C2(CCOC2)C(=O)N3CC(F)F)ccc1-n1cnc(C)c1` (centres unmarked) [Example 37h], for which half-maximal inhibition in the experiment on Aβ42 (IC50) required 123 nM. In the experiment with Aβ total, the “Ratio Aß(total)/Aß42” value was determined as 85.
For `COCCN1C(=O)C2(CCOC2)N(C)c2nc(Nc3ccc(-n4cnc(C)c4)c(OC)c3)ncc21` (centres unmarked) [Example 16], in that order: 180 nM and 88.
In the experiment on Aβ42, `COc1cc(Nc2ncc3c(n2)N(C)C2(CC2)C(=O)N3C2COC2)ccc1-n1cnc(C)c1` [Example 47] registered an IC50 of 191 nM. In addition, the “Ratio Aß(total)/Aß42” value with Aβ total is 98.
On the same counts, the results for `COc1cc(Nc2ncc3c(n2)N(C)C2(COCCOC2)C(=O)N3C)ccc1-n1cnc(C)c1` [Example 27] are 270 nM and more than 112.
The compound `COc1cc(Nc2ncc3c(n2)N(C)C2(CCOC2)C(=O)N3C(C)c2ccccn2)ccc1-n1cnc(C)c1` (centres unmarked) [Example 37k] came in with an IC50 in the experiment on Aβ42 of 120 nM. Further, the “Ratio Aß(total)/Aß42” value in the experiment on Aβ total came to 88.
`Cc1ncc(-c2ccc(Nc3ncc4c(n3)N(C)C3(CCc5ccccc5C3)C(=O)N4C)cn2)o1` (centres unmarked) [Example 37] came in with an IC50 with Aβ42 of 940 nM. The “Ratio Aß(total)/Aß42” value with Aβ total was determined as 29.
In the case of `COc1cc(Nc2ncc3c(n2)N(C)C2(CCOCC2)C(=O)N3Cc2ccc(F)cc2F)ccc1-n1cnc(C)c1` [Example 37j], in the experiment with Aβ42, half-maximal inhibition (IC50) was put at 73 nM. In addition, the “Ratio Aß(total)/Aß42” value in the experiment on Aβ total was found to be 57.
On the same counts, the results for `COc1cc(Nc2ncc3c(n2)N(C)C2(CCOC2)C(=O)N3C)ccc1-n1cnc(C)c1` (centres unmarked) [Example 6] are 220 nM and more than 136.
For `COc1cc(Nc2nc3c(c(C(F)(F)F)n2)N(C)C(=O)C2(CCOCC2)N3C)ccc1-n1cnc(C)c1` [Example 37d], in that order: 815 nM and more than 36.
In the experiment with Aβ42, `CCc1nc(Nc2cnc(-n3cnc(C)c3)c(OC)c2)nc2c1N(C)C(=O)C1(CC1)N2C` [Example 37i] came in with a half-maximal inhibitory concentration (IC50) of 150 nM. The “Ratio Aß(total)/Aß42” value in the experiment with Aβ total was 54.
`COc1cc(Nc2ncc3c(n2)NC2(CCOC2)C(=O)N3CC2CCOCC2)ccc1-n1cnc(C)c1` (centres unmarked) [Example 22] registered an IC50 in the experiment on Aβ42 of 3300 nM. Besides, the “Ratio Aß(total)/Aß42” value with Aβ total was more than 9.
Turning to `COc1cc(Nc2ncc3c(n2)N(C)C2(CCOC2)C(=O)N3CC2CCOCC2)ccc1-n1cnc(C)c1` (centres unmarked) [Example 26], the IC50 with Aβ42 was found to be 350 nM. Moreover, the “Ratio Aß(total)/Aß42” value with Aβ total turned out to be 46.
`COc1cc(Nc2ncc3c(n2)N(C)C2(CC2)C(=O)N3CC(F)(F)F)ccc1-n1cnc(C)c1` [Example 44] registered an IC50 in the experiment on Aβ42 of 85 nM. The “Ratio Aß(total)/Aß42” value in the experiment on Aβ total is on record as 50.
